Drawing on US20100137313A1 (ASTRAZENECA AB, priority 2008, published 2010), this text covers inhibition for 22 molecules.

Each structure is given as a SMILES string.

S. pneumoniae Topoisomerase IV ATPase (ParE), sequence (Q59961 whole entry): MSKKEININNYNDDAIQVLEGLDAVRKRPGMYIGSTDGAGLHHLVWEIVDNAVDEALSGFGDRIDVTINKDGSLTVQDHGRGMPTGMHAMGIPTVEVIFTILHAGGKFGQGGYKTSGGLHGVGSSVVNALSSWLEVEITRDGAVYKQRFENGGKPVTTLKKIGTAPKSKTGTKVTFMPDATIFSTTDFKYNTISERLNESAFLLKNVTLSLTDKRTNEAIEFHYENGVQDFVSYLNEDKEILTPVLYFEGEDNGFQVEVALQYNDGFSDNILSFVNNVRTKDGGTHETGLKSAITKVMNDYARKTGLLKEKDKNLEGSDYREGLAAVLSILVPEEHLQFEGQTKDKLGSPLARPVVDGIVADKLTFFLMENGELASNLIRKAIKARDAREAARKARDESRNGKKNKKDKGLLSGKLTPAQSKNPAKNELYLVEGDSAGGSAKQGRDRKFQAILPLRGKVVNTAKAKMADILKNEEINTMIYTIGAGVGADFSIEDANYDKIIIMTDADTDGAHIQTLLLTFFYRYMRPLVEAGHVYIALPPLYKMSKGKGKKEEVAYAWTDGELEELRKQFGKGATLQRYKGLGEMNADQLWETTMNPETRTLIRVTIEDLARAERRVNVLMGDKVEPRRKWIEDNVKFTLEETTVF

This test addresses S. pneumoniae Topoisomerase IV ATPase (ParE) (Streptococcus pneumoniae serotype 4, UniProt Q59961). Briefly: S. pneumoniae Topoisomerase IV ATPase inhibition. Conditions: values marked * are an average of two or more data points, read-out: % Inh (13 μM) of S. pneumoniae Topoisomerase IV ATPase. The class given is biochemical. How it is done:
S. pneumoniae Topoisomerase IV ATPase Inhibition Activity: Compounds may be tested for inhibition of S. pneumoniae ParE ATPase activity using an ammonium molybdate/malachite green-based phosphate detection assay (Lanzetta, P. A., L. J. Alvarez, P. S. Reinach, and O. A. Candia, 1979, 100: 95-97). Assays are performed in multiwell plates in 30 μl reactions containing: 20 mM Tris buffer pH 8.0, 50 mM ammonium acetate, 8.0 mM magnesium chloride, 0.5 mM ethylenediaminetetraacetic acid, 5% glycerol, 5 mM 1,4-Dithio-DL-threitol, 0.005% Brij-35, 5 μg/ml sheared salmon sperm DNA, 1.25 nM S. pneumoniae ParE, 160 μM ATP, and test compound in dimethylsulfoxide. Reactions are quenched with 30 μl of ammonium molybdate/malachite green detection reagent containing 1.2 mM malachite green hydrochloride, 8.5 mM ammonium molybdate tetrahydrate, and 1 M hydrochloric acid. Plates are read in an absorbance plate reader at 650 nm and percent inhibition values are calculated using dimethylsulfoxide (2%)-containing reactions as 0% inhibition and EDTA-containing ([…]) reactions as 100% inhibition controls. An IC50 measurement of compound potency for each compound can be determined from reactions performed in the presence of 10 different compound concentrations.
Many of the compounds of the invention were tested in an assay substantially similar to the assays described above for measuring the inhibition of E.coli GyrB ATPase, E. coli Topoisomerase IV ATPase, S. aureus GyrB ATPase, and S. pneumoniae Topoisomerase IV ATPase, and had IC50 values of <200 μM in one or more assays.
For the molecule `COc1cc(Nc2ncc(-c3ccc4c(c3)C(=O)NS4(=O)=O)c(-n3ccc(C(F)(F)F)n3)n2)cc(OC)c1` [Example 831, 5-{2-[(3,5-dimethoxyphenyl)amino]-4-[3-(trifluoromethyl)-1H-pyrazol-1-yl]pyrimidin-5-yl}-1,2-benzothiazol-3(2H)-one 1,1-dioxide], the inhibition at 13 µM amounted to 89%.

In the case of `CCOC(=O)/C=C/c1cccc(-c2cnc(Nc3ccc(F)c(Cl)c3)nc2-n2cnc(Cl)c2Cl)c1` [Example 161, ethyl (2E)-3-(3-{2-[(3-chloro-4-fluorophenyl)amino]-4-(4,5-dichloro-1H-imidazol-1-yl)pyrimidin-5-yl}phenyl)prop-2-enoate], the inhibition at 13 µM is 74.8%.

As to `COc1cc(Nc2ncc(-c3ccc(C(=O)O)s3)c(NCCCN(C)C)n2)cc(C(F)(F)F)c1` [Example 346, 5-{4-[3-(dimethylamino)propylamino]-2-[3-methoxy-5-(trifluoromethyl)phenylamino]pyrimidin-5-yl}thiophene-2-carboxylic acid], the inhibition at 13 µM stood at 79.5%.

With `O=C(O)c1cncc(-c2cnc(Nc3ccc(F)c(Cl)c3)nc2N2CCOC(CO)C2)c1` (stereo not shown) [Example 1060], the inhibition at 13 µM worked out at 87%.

For `COc1cc(Nc2ncc(-c3cncc(C(=O)NCCS(C)(=O)=O)c3)c(-n3ccc(C(F)(F)F)n3)n2)cc(OC)c1` [Example 684, 5-{2-[(3,5-dimethoxyphenyl)amino]-4-[3-(trifluoromethyl)-1H-pyrazol-1-yl]pyrimidin-5-yl}-N-[2-(methylsulfonyl)ethyl]pyridine-3-carboxamide], the inhibition at 13 µM was 100%.

For `O=C(O)c1cncc(-c2cnc(Nc3ccc(F)c(Cl)c3)nc2-n2cc(-c3ccncc3)cn2)c1` [Example 308, 5-{2-[(3-chloro-4-fluorophenyl)amino]-4-[4-(pyridin-4-yl)-1H-pyrazol-1-yl]pyrimidin-5-yl}pyridine-3-carboxylic acid], the inhibition at 13 µM was 101%.

Regarding `CCOC(=O)c1cncc(-c2cnc(Nc3cc(OC)cc(-n4cnnn4)c3)nc2N2CCOCC2)c1` [Example 380, 5-[2-(3-Methoxy-5-tetrazol-1-yl-phenylamino)-4-morpholin-4-yl-pyrimidin-5-yl]-nicotinic acid ethyl ester], the inhibition at 13 µM worked out at 37%.

Turning to `COCCCNc1nc(Nc2ccc(F)c(Cl)c2)ncc1-c1nc(C)c(C(=O)O)s1` [Example 509, 2-{2-[(3-chloro-4-fluorophenyl)amino]-4-[(3-methoxypropyl)amino]pyrimidin-5-yl}-4-methyl-1,3-thiazole-5-carboxylic acid], the inhibition at 13 µM came out at 100%.

`COc1cc(Nc2ncc(-c3cnc(OC)c(C(=O)NS(C)(=O)=O)c3)c(-n3nc(C(F)(F)F)cc3C)n2)cc(C(F)(F)F)c1` [Example 902, 2-methoxy-5-(2-(3-methoxy-5-(trifluoromethyl)phenylamino)-4-(5-methyl-3-(trifluoromethyl)-1H-pyrazol-1-yl)pyrimidin-5-yl)-N-(methylsulfonyl)nicotinamide]: the inhibition at 13 µM was 97%.

`N#Cc1cc(F)cc(Nc2ncc(-c3cccc(/C=C/C(=O)O)c3)c(N3CCOCC3)n2)c1` [Example 407, (E)-3-{3-[2-(3-Cyano-5-fluoro-phenylamino)-4-morpholin-4-yl-pyrimidin-5-yl]-phenyl}-acrylic acid]: the inhibition at 13 µM stood at 86%.

`NC(=O)c1cncc(-c2cnc(Nc3ccc(F)c(Cl)c3)nc2NCCc2cccnc2)c1` [Example 473, 5-(2-[(3-chloro-4-fluorophenyl)amino]-4-{[2-(pyridin-3-yl)ethyl]amino}pyrimidin-5-yl)-pyridine-3-carboxamide]: the inhibition at 13 µM was determined as 62%.

Consider `CN(C)CCCNc1nc(Nc2ccc(F)c(Cl)c2)ncc1-c1ccc(C(=O)N2CCCCC2)s1` [Example 369, (5-(2-(3-chloro-4-fluorophenylamino)-4-(3-(dimethylamino)propylamino)pyrimidin-5-yl)thiophen-2-yl) (piperidin-1-yl) methanone], for which the inhibition at 13 µM is 122%.

With `COc1cc(C#N)cc(Nc2ncc(-c3cncc(C(=O)O)c3)c(-n3ccc(C(F)(F)F)n3)n2)c1` [Example 732, 5-{2-[(3-cyano-5-methoxyphenyl)amino]-4-[3-(trifluoromethyl)-1H-pyrazol-1-yl]pyrimidin-5-yl}pyridine-3-carboxylic acid], the inhibition at 13 µM was found to be 100%.

In the case of `Cc1cc(C(F)(F)F)nn1-c1nc(Nc2ccc(F)c(Cl)c2)ncc1-c1cnc(OCCc2ccncc2)c(C(=O)O)c1` [Example 871, 5-(2-(3-chloro-4-fluorophenylamino)-4-(5-methyl-3-(trifluoromethyl) 1H-pyrazol-1-yl)pyrimidin-5-yl)-2-(2-(pyridin-4-yl)ethoxy)nicotinic acid], the inhibition at 13 µM stood at 100%.

For the molecule `CONC(=O)c1cccc(-c2cnc(Nc3ccc(F)c(Cl)c3)nc2NCCCN(C)C)c1` [Example 360, 3-(2-(3-chloro-4-fluorophenylamino)-4-(3-(dimethylamino)propylamino)pyrimidin-5-yl)-N-methoxybenzamide], the inhibition at 13 µM was determined as 112%.

Turning to `Cc1cccc(Nc2ncc(-c3cccc(/C=C/C(=O)O)c3)c(-n3nc(C(F)(F)F)cc3C)n2)c1` [Example 695, (2E)-3-(3-{2-[(3-methylphenyl)amino]-4-[5-methyl-3-(trifluoromethyl)-1H-pyrazol-1-yl]pyrimidin-5-yl}phenyl)prop-2-enoic acid], the inhibition at 13 µM amounted to 100%.

On to `COCCCNc1nc(Nc2ccc(F)c(Cl)c2)ncc1-c1ccc2sc(C(=O)OC)cc2c1` [Example 180, methyl 5-(2-(3-chloro-4-fluorophenylamino)-4-(3-methoxypropylamino)-pyrimidin-5-yl)benzo[b]thiopene-2-carboxylate], for which the inhibition at 13 µM is -56.9%.

Regarding `O=C(O)/C=C/c1cccc(-c2cnc(Nc3ccc(F)c(Cl)c3)nc2N2CCCCC2)c1` [Example 297, (E)-3-(3-(2-(3-chloro-4-fluorophenylamino)-4-(piperidin-1-yl)pyrimidin-5-yl)phenyl)acrylic acid], the inhibition at 13 µM is 128%.

With `CCOC(=O)c1cncc(-c2cnc(Nc3ccc(F)c(Cl)c3)nc2NCCN2CCS(=O)(=O)CC2)c1` [Example 104, 5-{2-(3-Chloro-4-fluoro-phenylamino)-4-[2-(1,1-dioxo-1λ^6-thiomorpholin-4-yl)-ethylamino]-pyrimidin-5-yl}-nicotinic acid ethyl ester], the inhibition at 13 µM is 76.2%.

For `Cc1cc(C(F)(F)F)nn1-c1nc(Nc2ccc(F)c(Cl)c2)ncc1-c1cncc(C(=O)N2CCOCC2)c1` [Example 931, (5-(2-(3-chloro-4-fluorophenylamino)-4-(5-methyl-3-(trifluoromethyl)-1H-pyrazol-1-yl)pyrimidin-5-yl)pyridin-3-yl)(morpholino)methanone], the inhibition at 13 µM came to 100%.

For the molecule `CN1CCN(c2nc(Nc3ccc(F)c(Cl)c3)ncc2-c2cncc(C(=O)O)c2)CC1` [Example 285, 5-(2-(3-chloro-4-fluorophenylamino)-4-(4-methylpiperazin-1-yl)pyrimidin-5-yl)nicotinic acid], the inhibition at 13 µM was determined as 61.9%.

In the case of `CC(C)Nc1nc(Nc2ccc(F)c(Cl)c2)ncc1-c1cncc(C(=O)O)c1` [Example 243, 5-[2-[(3-chloro-4-fluorophenyl)amino]-4-(propan-2-ylamino)pyrimidin-5-yl]pyridine-3-carboxylic acid], the inhibition at 13 µM was 83.5%.
